Our source for the TGI values is PubChem BioAssay (NCI).

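Grown in 96-well plates, cells were treated for 48 hours with each compound at five concentrations. Insufficient inhibition: endpoint recorded as highest concentration tested. TGI is the concentration that stops growth completely.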

Among the test systems are A498 renal; A549 NSCLC; CCRF-CEM leukemia; HCC-2998 colon; HCT-116 colon; HOP-62 NSCLC; MALME-3M melanoma; MOLT-4 leukemia; OVCAR-3 ovarian; OVCAR-4 ovarian; OVCAR-5 ovarian; RPMI-8226 leukemia; SF-268 CNS; SK-MEL-5 melanoma; SK-OV-3 ovarian; SW-620 colon; TK-10 renal; UACC-257 melanoma; SNB-75 CNS.
Common to all, as to assay: DTP human tumour cell line panel, 48 h

A word on the TGI: it is the concentration at which net growth stops. Consider `CCCCCCCCCCCCCCCCCC(=O)NCCCNCCCNC(=O)CCCCCCCCCCCCCCCCC`, for which the TGI in the assay with A498 renal, with A549 NSCLC, in the assay with CCRF-CEM leukemia, in the assay on HCC-2998 colon, in the assay with HCT-116 colon and with HOP-62 NSCLC was greater than 100 µM throughout. Besides, the TGI in the assay with MALME-3M melanoma, in the assay on MOLT-4 leukemia, in the assay on OVCAR-3 ovarian, in the assay on OVCAR-4 ovarian, in the assay with OVCAR-5 ovarian and in the assay with RPMI-8226 leukemia was greater than 100 µM each time. Besides, the TGI in the assay on SF-268 CNS, with SK-MEL-5 melanoma, in the assay with SK-OV-3 ovarian, with SW-620 colon, with TK-10 renal and in the assay on UACC-257 melanoma was greater than 100 µM each time.

Consider `Cc1ccc2c(c1)NC(=O)C(N=[N+]=[N-])(c1ccccc1)C2=O` (configuration not stated), for which the TGI with A498 renal was greater than 100 µM; in the assay on A549 NSCLC, greater than 100 µM; in the assay with CCRF-CEM leukemia, greater than 100 µM; in the assay with HCC-2998 colon, greater than 100 µM; in the assay on HCT-116 colon, 79.4 µM; with HOP-62 NSCLC, greater than 100 µM. Besides, the TGI with MALME-3M melanoma was 71.6 µM; in the assay with MOLT-4 leukemia it was 71.5 µM; in the assay on OVCAR-3 ovarian, 37.7 µM; with OVCAR-4 ovarian, greater than 100 µM; with OVCAR-5 ovarian it was greater than 100 µM; with SF-268 CNS, greater than 100 µM. The TGI with SK-MEL-5 melanoma was 47.4 µM; in the assay with SK-OV-3 ovarian it was 84.3 µM; in the assay on SNB-75 CNS, greater than 100 µM; with SW-620 colon, greater than 100 µM; in the assay on TK-10 renal, greater than 100 µM; in the assay on UACC-257 melanoma it was 79.7 µM.

As to `CCCCCN(CCCCC)C(=O)[C@@H](CCC(=O)OCc1ccccc1)NC(=O)c1cc2ccccc2[nH]1`, the TGI in the assay with A498 renal, in the assay with A549 NSCLC, in the assay on CCRF-CEM leukemia, with HCC-2998 colon, in the assay with HCT-116 colon and in the assay with HOP-62 NSCLC was greater than 100 µM throughout. Further, the TGI in the assay on MALME-3M melanoma, in the assay with OVCAR-3 ovarian, in the assay on OVCAR-4 ovarian, in the assay on OVCAR-5 ovarian, in the assay with SF-268 CNS and with SK-OV-3 ovarian was greater than 100 µM each time. Moreover, the TGI in the assay with SNB-75 CNS, in the assay on SW-620 colon and in the assay with UACC-257 melanoma was greater than 100 µM each time.

Consider `CCOc1ccc(N=Cc2cc(OC)c(OC)c(OC)c2)cc1`, for which the TGI in the assay on A498 renal, in the assay with A549 NSCLC, in the assay on CCRF-CEM leukemia, in the assay with HCT-116 colon, with HOP-62 NSCLC and with MALME-3M melanoma was greater than 100 µM throughout. In addition, the total growth inhibition concentration (TGI) in the assay on MOLT-4 leukemia is greater than 100 µM; in the assay on OVCAR-3 ovarian, greater than 100 µM; with OVCAR-4 ovarian it was greater than 100 µM; in the assay on OVCAR-5 ovarian, greater than 100 µM; in the assay on RPMI-8226 leukemia, 45.1 µM; in the assay with SF-268 CNS, greater than 100 µM. Also, the TGI is greater than 100 µM in the assay on SK-MEL-5 melanoma; greater than 100 µM in the assay with SK-OV-3 ovarian; greater than 100 µM in the assay on SNB-75 CNS; 32.1 µM in the assay on SW-620 colon; greater than 100 µM in the assay with TK-10 renal; greater than 100 µM in the assay on UACC-257 melanoma.

`C[n+]1c2ccccc2c(NC(CCC(N)=O)C(=O)O)c2ccccc21` (configuration not stated): the TGI with A498 renal, in the assay with A549 NSCLC, with HCC-2998 colon, in the assay on HCT-116 colon, in the assay with HOP-62 NSCLC and in the assay with MALME-3M melanoma was greater than 100 µM each time. Besides, the TGI with MOLT-4 leukemia, with OVCAR-3 ovarian, in the assay on OVCAR-4 ovarian, with OVCAR-5 ovarian, in the assay on RPMI-8226 leukemia and with SF-268 CNS was greater than 100 µM in each case. In addition, the TGI with SK-MEL-5 melanoma, in the assay with SK-OV-3 ovarian, in the assay on SNB-75 CNS, in the assay on SW-620 colon, in the assay with TK-10 renal and with UACC-257 melanoma was greater than 100 µM throughout.

As to `CN(C)CC1(C)CC/C(=C\c2ccc3c(c2)OCO3)C1=O` (configuration not stated), the TGI with A498 renal, with A549 NSCLC, in the assay with CCRF-CEM leukemia, in the assay with HCC-2998 colon, in the assay with HCT-116 colon and in the assay on HOP-62 NSCLC was greater than 100 µM in each case. The TGI in the assay on MALME-3M melanoma was greater than 100 µM; with MOLT-4 leukemia it was greater than 100 µM; in the assay with OVCAR-3 ovarian, greater than 100 µM; in the assay on OVCAR-4 ovarian, greater than 100 µM; with OVCAR-5 ovarian it was greater than 100 µM; in the assay with RPMI-8226 leukemia it was 81.4 µM. Besides, the TGI in the assay on SF-268 CNS, in the assay on SK-MEL-5 melanoma, in the assay with SNB-75 CNS, with SW-620 colon, in the assay on TK-10 renal and in the assay on UACC-257 melanoma was greater than 100 µM each time.

Consider `CCC(C)(C)NC1=C(NC(C)=O)C(=O)c2ccccc2C1=O`, for which the TGI in the assay with A549 NSCLC was greater than 75 µM; in the assay with CCRF-CEM leukemia, 41.3 µM; with HCC-2998 colon it was greater than 75 µM; in the assay on HCT-116 colon, greater than 75 µM; in the assay with HOP-62 NSCLC, greater than 75 µM; in the assay on MALME-3M melanoma, greater than 75 µM. Also, the TGI in the assay with MOLT-4 leukemia was 31.6 µM; in the assay on OVCAR-3 ovarian it was greater than 75 µM; in the assay on OVCAR-4 ovarian, greater than 75 µM; with SF-268 CNS, greater than 75 µM; in the assay with SK-MEL-5 melanoma, 26 µM; in the assay with SK-OV-3 ovarian, greater than 75 µM. In addition, the TGI is greater than 75 µM in the assay with SNB-75 CNS, greater than 75 µM in the assay with SW-620 colon, greater than 75 µM in the assay with TK-10 renal and 70.7 µM with UACC-257 melanoma.

On to `Cc1c2n(c3ccccc13)CC1C2N(C)OC1(C)C` (configuration not stated), for which the TGI with A549 NSCLC, with CCRF-CEM leukemia, with HCC-2998 colon, in the assay on HCT-116 colon, in the assay on HOP-62 NSCLC and in the assay with MALME-3M melanoma was greater than 100 µM each time. Also, the TGI in the assay with MOLT-4 leukemia, in the assay on OVCAR-3 ovarian, in the assay with OVCAR-4 ovarian, in the assay with OVCAR-5 ovarian, with RPMI-8226 leukemia and with SF-268 CNS was greater than 100 µM in each case. The TGI in the assay on SK-MEL-5 melanoma, in the assay on SK-OV-3 ovarian, with SNB-75 CNS and in the assay on UACC-257 melanoma was greater than 100 µM in each case.
